Patent publication US20230271964A1, “5-AMINO-8-(4-PYRIDYL)-[1,2,4]TRIAZOLO[4,3-C]PYRIMIDIN-3-ONE COMPOUNDS FOR USE AGAINST CANCER” (ASTRAZENECA AB, priority 2020, published 2023)

Key:
[1] = biological target: human adenosine A2A receptor (Homo sapiens (Human), UniProt P29274); test: Adenosine receptor inhibition binding assay, [3H]ZM241385, HEK293 A2A receptor membranes; conditions: 1 nM [3H]ZM241385, HEK293-hA2A membranes, 25° C., 1 h, Ki from IC50 by Cheng-Prusoff
Summary of the method: (§1)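 Membranes from BacMam-transduced HEK293 cells (0.2 µg A2A; 1.4 µg A1) incubated 1 h at 25 °C with 1 nM radioligand; A2A in 50 mM Tris-HCl pH 7.4, A1 buffer adds 100 mM NaCl, 10 mM MgCl2. Nonspecific binding: 1 µM CGS 15943 (A2A) or 1 µM DPCPX (A1). Filtration, scintillation counting; IC50 converted to Ki via Cheng-Prusoff.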

[2] = biological target: human adenosine A1 receptor (Homo sapiens (Human), UniProt P30542); test: Adenosine receptor inhibition binding assay, [3H]DPCPX, A1 receptor membranes; conditions: 1 nM [3H]DPCPX, 25° C., 1 h, Ki from IC50 by Cheng-Prusoff
human adenosine A1 receptor, sequence (P30542 whole entry): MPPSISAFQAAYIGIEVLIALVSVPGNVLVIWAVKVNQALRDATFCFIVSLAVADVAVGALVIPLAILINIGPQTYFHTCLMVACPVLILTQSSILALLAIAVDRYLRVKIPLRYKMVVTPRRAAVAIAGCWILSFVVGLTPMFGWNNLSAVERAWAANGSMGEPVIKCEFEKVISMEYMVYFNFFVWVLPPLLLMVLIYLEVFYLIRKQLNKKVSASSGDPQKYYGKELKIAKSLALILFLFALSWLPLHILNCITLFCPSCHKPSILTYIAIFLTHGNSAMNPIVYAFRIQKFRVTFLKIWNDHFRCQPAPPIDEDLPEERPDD
Summary of the method: as §1

[3] = biological target: human CB1 receptor (Homo sapiens (Human), UniProt P21554); test: CB1 receptor antagonism, agonist-induced cAMP modulation (HTRF) in transfected CHO cells; format: cell-based; conditions: read-out: Antag IC50
human CB1 receptor, sequence (P21554 whole entry): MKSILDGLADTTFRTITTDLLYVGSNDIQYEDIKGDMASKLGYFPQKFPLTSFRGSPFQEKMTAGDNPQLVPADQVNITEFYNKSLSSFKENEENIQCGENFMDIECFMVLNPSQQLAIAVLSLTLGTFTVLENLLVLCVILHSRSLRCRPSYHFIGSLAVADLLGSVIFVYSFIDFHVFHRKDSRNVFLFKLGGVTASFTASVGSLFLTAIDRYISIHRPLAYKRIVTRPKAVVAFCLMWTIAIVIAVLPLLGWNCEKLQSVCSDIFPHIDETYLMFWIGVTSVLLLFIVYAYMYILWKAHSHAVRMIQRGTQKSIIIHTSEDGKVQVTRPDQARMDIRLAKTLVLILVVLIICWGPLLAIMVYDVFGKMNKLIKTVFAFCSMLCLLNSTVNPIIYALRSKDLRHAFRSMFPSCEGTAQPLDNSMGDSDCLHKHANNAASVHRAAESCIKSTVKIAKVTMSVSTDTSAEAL
Description: Receptor antagonism: Evaluation of the antagonist activity of compounds at the human CB1 receptor expressed in transfected CHO cells, determined by measuring their effects on agonist-induced cAMP modulation using the HTRF detection method.
Thereafter, the reference agonist CP 55940 and the adenylyl cyclase activator NKH 477 are added at respective final concentrations of 3 nM and 3 µM.
For basal control measurements, CP 55940 is omitted from the wells containing 3 µM AM 281.
Following 20 min incubation at 37° C., the cells are lysed and the fluorescence acceptor (D2-labeled cAMP) and fluorescence donor (anti-cAMP antibody labeled with europium cryptate) are added.
After 60 min at room temperature, the fluorescence transfer is measured at λex=337 nm and λem=620 and 665 nm using a microplate reader (Rubystar, BMG). The cAMP concentration is determined by dividing the signal measured at 665 nm by that measured at 620 nm (ratio).
The standard reference antagonist is AM 281, which is tested in each experiment at several concentrations to generate a concentration-response curve from which its IC50 value is calculated.

[4] = biological target: human CB-1 cannabinoid receptor (Homo sapiens (Human), UniProt P21554); test: CB-1 receptor radioligand binding assay, [3H]CP 55940, transfected CHO cell membranes; conditions: 0.5 nM [3H]CP 55940, CHO cell membranes, 120 min at 37° C.
human CB-1 cannabinoid receptor, sequence (P21554 whole entry): as above
Description: Nonspecific binding is determined in the presence of 10 µM WIN 55212-2.
Following incubation, the samples are filtered rapidly under vacuum through glass fiber filters (GF/B, Packard) presoaked with 0.3% PEI and rinsed several times with an ice-cold buffer containing 50 mM Tris-HCl (pH 7.4) and 0.5% BSA using a 96-sample cell harvester (Unifilter, Packard). The filters are dried then counted for radioactivity in a scintillation counter (Topcount, Packard) using a scintillation cocktail (Microscint 0, Packard).
The standard reference compound is CP 55940 which is tested in each experiment at several concentrations to obtain a competition curve from which its IC50 is calculated.

human adenosine A2A receptor, sequence (P29274 whole entry): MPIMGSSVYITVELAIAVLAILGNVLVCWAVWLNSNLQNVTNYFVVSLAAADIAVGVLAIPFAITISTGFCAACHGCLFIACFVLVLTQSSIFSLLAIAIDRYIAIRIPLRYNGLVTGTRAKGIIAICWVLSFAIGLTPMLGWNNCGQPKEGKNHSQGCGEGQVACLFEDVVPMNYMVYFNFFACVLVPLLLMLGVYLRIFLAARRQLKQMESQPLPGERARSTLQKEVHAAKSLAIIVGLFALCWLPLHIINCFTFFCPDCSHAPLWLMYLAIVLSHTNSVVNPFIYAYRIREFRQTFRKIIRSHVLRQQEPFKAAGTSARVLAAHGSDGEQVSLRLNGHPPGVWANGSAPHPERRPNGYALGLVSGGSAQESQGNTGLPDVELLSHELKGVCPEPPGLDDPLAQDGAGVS

A2A pKi [1] | A1 pKi [2] | IC50 [3] [µM] | Ki [4] [µM] | Ki ([1]; read-out: A2A pKi (converted)) [µM] | Ki ([2]; read-out: A1 pKi (converted)) [µM] | Compound
9.6 | 7.0 | 12.1 | 26.1 |  |  | Cc1cc(-c2c(-c3ccc(F)cc3)nc(N)n3c(=O)n(Cc4ncoc4C)nc23)cc(C)n1 [Example 1-31, 5-amino-8-(2,6-dimethyl-4-pyridyl)-7-(4-fluorophenyl)-2-[(5-methyloxazol-4-yl)methyl]-[1,2,4]triazolo[4,3-c]pyrimidin-3-one]
9.9 | 6.8 | > 100 | 66.7 |  |  | COc1cc(-c2c(-c3ccccc3)nc(N)n3c(=O)n(Cc4ncoc4C)nc23)cc(CO)n1 [Example 1-60, 5-amino-8-[2-(hydroxymethyl)-6-methoxy-4-pyridyl]-2-[(5-methyloxazol-4-yl)methyl]-7-phenyl-[1,2,4]triazolo[4,3-c]pyrimidin-3-one]
9.6 | 6.5 | > 100 | 40.8 |  |  | COc1cc(-c2c(-c3ccc(F)cc3)nc(N)n3c(=O)n(Cc4ncoc4C)nc23)cc(CO)n1 [Example 1-64, 5-amino-7-(4-fluorophenyl)-8-[2-(hydroxymethyl)-6-methoxy-4-pyridyl]-2-[(5-methyloxazol-4-yl)methyl]-[1,2,4]triazolo[4,3-c]pyrimidin-3-one]
10.1 | 7.4 | > 100 | 29.6 |  |  | Cc1cc(-c2c(-c3ccccc3)nc(N)n3c(=O)n(Cc4ncoc4C)nc23)cc(C)n1 [Example 1-22, 5-amino-8-(2,6-dimethyl-4-pyridyl)-2-[(5-methyloxazol-4-yl)methyl]-7-phenyl-[1,2,4]triazolo[4,3-c]pyrimidin-3-one]
9.1 | 6.7 | > 100 | 86.9 |  |  | Cc1cc(-c2c(-c3ccccc3)nc(N)n3c(=O)n(Cc4cc(C)on4)nc23)cc(CO)n1 [Example 1-43, 5-amino-8-[2-(hydroxymethyl)-6-methyl-4-pyridyl]-2-[(5-methylisoxazol-3-yl)methyl]-7-phenyl-[1,2,4]triazolo[4,3-c]pyrimidin-3-one]
8.4 | 6.3 | > 100 | 76.4 |  |  | Cc1cc(-c2c(-c3ccccc3)nc(N)n3c(=O)n(CC4CCCN4Cc4ccccc4CN)nc23)cc(C)n1 (centres unmarked) [Example 3-4, 5-amino-2-[[1-[[2-(aminomethyl)phenyl]methyl]pyrrolidin-2-yl]methyl]-8-(2,6-dimethyl-4-pyridyl)-7-phenyl-[1,2,4]triazolo[4,3-c]pyrimidin-3-one]
9.5 | 6.5 | > 100 | 86.1 |  |  | Cc1cc(-c2c(-c3ccc(F)cc3)nc(N)n3c(=O)n(Cc4nccn4C)nc23)cc(CO)n1 [Example 1-50, 5-amino-7-(4-fluorophenyl)-8-[2-(hydroxymethyl)-6-methyl-4-pyridyl]-2-[(1-methylimidazol-2-yl)methyl]-[1,2,4]triazolo[4,3-c]pyrimidin-3-one]
9.4 | 6.4 | > 100 | 80.3 |  |  | Cc1cc(-c2c(-c3ccc(F)cc3)nc(N)n3c(=O)n(Cc4ncoc4C)nc23)cc(CO)n1 [Example 1-51, 5-amino-7-(4-fluorophenyl)-8-[2-(hydroxymethyl)-6-methyl-4-pyridyl]-2-[(5-methyloxazol-4-yl)methyl]-[1,2,4]triazolo[4,3-c]pyrimidin-3-one]
9.5 | 6.8 | > 100 |  |  |  | COc1cc(-c2c(-c3ccccc3)nc(N)n3c(=O)n(Cc4nccn4C)nc23)cc(CO)n1 [Example 1-61, 5-amino-8-[2-(hydroxymethyl)-6-methoxy-4-pyridyl]-2-[(1-methylimidazol-2-yl)methyl]-7-phenyl-[1,2,4]triazolo[4,3-c]pyrimidin-3-one]
8.9 | 7.6 | 10.1 | 29.2 |  |  | Cc1cc(-c2c(-c3ccccc3)nc(N)n3c(=O)n(CCN4CCCC4c4cccs4)nc23)cc(C)n1 (centres unmarked) [Example 3-1, 5-amino-8-(2,6-dimethyl-4-pyridyl)-7-phenyl-2-[2-[2-(2-thienyl)pyrrolidin-1-yl]ethyl]-[1,2,4]triazolo[4,3-c]pyrimidin-3-one]
8.9 | 6.3 | > 100 |  |  |  | Nc1nc(-c2ccccc2)c(-c2cc(CO)nc(C(F)(F)F)c2)c2nn(C[C@H]3CCCO3)c(=O)n12 [Example 2-38, 5-amino-8-[2-(hydroxymethyl)-6-(trifluoromethyl)-4-pyridyl]-7-phenyl-2-[[(2R)-tetrahydrofuran-2-yl]methyl]-[1,2,4]triazolo[4,3-c]pyrimidin-3-one]
8.8 | 6.8 | > 100 |  |  |  | Cc1ocnc1Cn1nc2c(-c3cc(C)[n+]([O-])c(C)c3)c(-c3ccc(F)cc3)nc(N)n2c1=O [Example 1-37, 5-amino-8-(2,6-dimethyl-1-oxido-pyridin-1-ium-4-yl)-7-(4-fluorophenyl)-2-[(5-methyloxazol-4-yl)methyl]-[1,2,4]triazolo[4,3-c]pyrimidin-3-one]
9.4 | 7.5 | > 100 |  |  |  | Cn1ccnc1Cn1nc2c(-c3cc(Cl)nc(CO)c3)c(-c3ccccc3)nc(N)n2c1=O [Example 1-55, 5-amino-8-[2-chloro-6-(hydroxymethyl)-4-pyridyl]-2-[(1-methylimidazol-2-yl)methyl]-7-phenyl-[1,2,4]triazolo[4,3-c]pyrimidin-3-one]
 |  | 35.8 | 36.4 | 0.00316 | 0.1 | Cc1cc(-c2c(-c3ccccc3)nc(N)n3c(=O)n(C[C@H]4CC(F)(F)CN4C)nc23)cc(C)n1 [Example 2-14, 5-amino-2-[[(2R)-4,4-difluoro-1-methyl-pyrrolidin-2-yl]methyl]-8-(2,6-dimethyl-4-pyridyl)-7-phenyl-[1,2,4]triazolo[4,3-c]pyrimidin-3-one]
7.5 | 5.7 | > 100 |  |  |  | Cc1cc(-c2c(-c3ccccc3)nc(N)n3c(=O)n(C(CN)C4CCOC4)nc23)cc(C)n1 (centres unmarked) [Example 2-15, 5-amino-2-(2-amino-1-tetrahydrofuran-3-yl-ethyl)-8-(2,6-dimethyl-4-pyridyl)-7-phenyl-[1,2,4]triazolo[4,3-c]pyrimidin-3-one]
9.2 | 6.6 | 29.2 | 50.5 |  |  | Cc1cc(-c2c(-c3ccccc3)nc(N)n3c(=O)n(Cc4cc(C)on4)nc23)cc(C)n1 [Example 1-14, 5-amino-8-(2,6-dimethyl-4-pyridyl)-2-[(5-methylisoxazol-3-yl)methyl]-7-phenyl-[1,2,4]triazolo[4,3-c]pyrimidin-3-one]
9.6 | 6.6 | > 100 |  |  |  | Nc1nc(-c2ccccc2)c(-c2cc(Cl)nc(CO)c2)c2nn(C[C@H]3CCCO3)c(=O)n12 [Example 2-32, 5-amino-8-[2-chloro-6-(hydroxymethyl)-4-pyridyl]-7-phenyl-2-[[(2R)-tetrahydrofuran-2-yl]methyl]-[1,2,4]triazolo[4,3-c]pyrimidin-3-one]
9.2 | 5.9 | > 100 |  |  |  | COc1cc(-c2c(-c3ccccc3)nc(N)n3c(=O)n(C[C@H]4CCCO4)nc23)cc(CO)n1 [Example 2-35, 5-amino-8-[2-(hydroxymethyl)-6-methoxy-4-pyridyl]-7-phenyl-2-[[(2R)-tetrahydrofuran-2-yl]methyl]-[1,2,4]triazolo[4,3-c]pyrimidin-3-one]
